Here are results for nine compounds from patent US20200354426A1 (MEDIMMUNE LIMITED, priority 2016, published 2020).

SMILES strings stand for the structures. Where two headings read alike, the source gives them in different places. Numbered stars: 1 amine (or outer) side, 2 acyl side, 3 side chain; on linkers, the order of the positions; unused ones are H or OH. Side chains are listed from the residue outwards. Peptide text beside a SMILES is read from it. * marks the point of attachment. γGlu = O=C(O)[C@H](CCC(=O)[*:2])N[*:1]; Palmitoyl = CCCCCCCCCCCCCCCC(=O)*

The target of assay [1] is Human GLP1R (Homo sapiens, UniProt P43220). The experiment in a line: cAMP activity assay in assay medium (assay 1). To be noted: assay medium. In kind it is cell-based. On the set-up: expressed in transfected cells. An excerpt:
(§1) Biological Activity of Peptides in Cell-Based cAMP Activity Assay (Assay 1):
(§2) All sample dilutions were made in duplicate.

Assay [2] has as its target T1, Human GlucR (Homo sapiens, UniProt P47871).
T1 construct: expressed in transfected cells
The experiment in a line: cAMP activity assay in assay medium (assay 1). In kind it is cell-based. The following applies: assay medium.
From the text: as §1, §2

T1 sequence (P47871 26-477): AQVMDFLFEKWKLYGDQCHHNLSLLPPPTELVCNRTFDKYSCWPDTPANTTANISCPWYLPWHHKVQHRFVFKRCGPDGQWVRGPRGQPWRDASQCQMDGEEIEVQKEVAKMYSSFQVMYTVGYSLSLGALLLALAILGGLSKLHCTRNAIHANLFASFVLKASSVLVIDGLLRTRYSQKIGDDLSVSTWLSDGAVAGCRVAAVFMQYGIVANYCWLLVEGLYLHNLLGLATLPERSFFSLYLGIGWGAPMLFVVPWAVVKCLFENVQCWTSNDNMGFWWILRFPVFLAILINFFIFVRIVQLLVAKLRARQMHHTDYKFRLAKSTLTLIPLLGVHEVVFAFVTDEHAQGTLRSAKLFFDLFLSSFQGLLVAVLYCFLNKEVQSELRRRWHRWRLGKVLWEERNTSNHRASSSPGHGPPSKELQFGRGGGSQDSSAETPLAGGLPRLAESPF
Chain of Human GLP1R (P43220 24-463): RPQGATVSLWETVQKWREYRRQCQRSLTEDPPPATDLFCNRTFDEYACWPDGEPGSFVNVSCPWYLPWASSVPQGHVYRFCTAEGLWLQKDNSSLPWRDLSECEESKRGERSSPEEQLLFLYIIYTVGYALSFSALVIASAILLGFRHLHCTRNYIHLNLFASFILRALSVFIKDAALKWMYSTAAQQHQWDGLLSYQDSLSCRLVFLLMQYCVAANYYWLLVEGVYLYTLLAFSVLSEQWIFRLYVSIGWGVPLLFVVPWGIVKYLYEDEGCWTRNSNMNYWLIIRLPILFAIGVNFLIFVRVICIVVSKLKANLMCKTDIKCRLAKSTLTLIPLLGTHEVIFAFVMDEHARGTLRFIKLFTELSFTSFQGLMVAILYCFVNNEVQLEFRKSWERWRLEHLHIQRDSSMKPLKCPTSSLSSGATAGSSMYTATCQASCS

For the compound `CCCCCCCCCCCCCCCC(=O)N[C@@H](CCC(=O)NCCCC[C@H](NC(=O)[C@H](CCCCN)NC(=O)[C@H](CO)NC(=O)[C@H](Cc1ccc(O)cc1)NC(=O)[C@H](CC(=O)O)NC(=O)[C@H](CO)NC(=O)[C@@H](NC(=O)[C@H](Cc1ccccc1)NC(=O)[C@@H](NC(=O)CNC(=O)[C@H](CCC(N)=O)NC(=O)[C@H](CO)NC(=O)[C@@H](N)Cc1c[nH]cn1)[C@@H](C)O)[C@@H](C)O)C(=O)N[C@@H](CC(C)C)C(=O)N[C@@H](CC(=O)O)C(=O)N[C@@H](CO)C(=O)N[C@@H](CCC(=O)O)C(=O)N[C@@H](CCCNC(=N)N)C(=O)N[C@@H](C)C(=O)N[C@@H](CCCNC(=N)N)C(=O)N[C@@H](CC(=O)O)C(=O)N[C@@H](Cc1ccccc1)C(=O)N[C@H](C(=O)N[C@@H](C)C(=O)N[C@@H](Cc1c[nH]c2ccccc12)C(=O)N[C@@H](CC(C)C)C(=O)N[C@H](C(=O)N[C@@H](C)C(=O)NCC(=O)NCC(=O)O)C(C)C)C(C)C)C(=O)O` [Peptide G931] (H-HSQGTFTSDYSKK([γGlu-Palmitoyl])LDSERARDFVAWLVAGG-OH; N-terminus assumed), the EC50 (commonly the concentration needed to bring the measured effect to its halfway point) in assay [1] (Table 3, C-terminal acid peptides, read-out: Human GLP1R EC50) was found to be 130 pM; in assay [2] (Table 3, C-terminal acid peptides, read-out: Human GlucR EC50) it was 17.8 pM.
On to `CC(C)C[C@H](NC(=O)[C@H](Cc1ccc(O)cc1)NC(=O)[C@H](CCCCN)NC(=O)[C@H](CO)NC(=O)[C@H](Cc1ccc(O)cc1)NC(=O)[C@H](CC(=O)O)NC(=O)[C@H](CO)NC(=O)[C@@H](NC(=O)[C@H](Cc1ccccc1)NC(=O)[C@@H](NC(=O)CNC(=O)[C@H](CCC(N)=O)NC(=O)[C@H](CO)NC(=O)[C@@H](N)Cc1c[nH]cn1)[C@@H](C)O)[C@@H](C)O)C(=O)N[C@@H](CC(=O)O)C(=O)N[C@@H](CO)C(=O)N[C@@H](CCCNC(=N)N)C(=O)N[C@@H](CCCNC(=N)N)C(=O)N[C@@H](C)C(=O)N[C@@H](CCC(N)=O)C(=O)N[C@@H](CC(=O)O)C(=O)N[C@@H](Cc1ccccc1)C(=O)N[C@H](C(=O)N[C@@H](CCC(N)=O)C(=O)N[C@@H](Cc1c[nH]c2ccccc12)C(=O)N[C@@H](CC(C)C)C(=O)N[C@H](C(=O)N[C@@H](CCCNC(=N)N)C(=O)NCC(=O)NCC(=O)N[C@@H](CO)C(=O)N[C@@H](CO)C(=O)NCC(=O)NCC(=O)N[C@@H](CO)C(=O)N[C@@H](CO)C(=O)N[C@@H](CCCCN)C(N)=O)C(C)C)C(C)C` [g317], for which the EC50 in assay [1] (Table 4, read-out: hGLP1R EC50) turned out to be 2630 pM.
On to `CCCCCCCCCCCCCCCC(=O)NCCCC[C@H](NC(=O)[C@H](CO)NC(=O)[C@H](CO)NC(=O)CNC(=O)CNC(=O)[C@H](CO)NC(=O)[C@H](CO)NC(=O)CNC(=O)CNC(=O)[C@H](CCCNC(=N)N)NC(=O)[C@@H](NC(=O)[C@H](CC(C)C)NC(=O)[C@H](Cc1c[nH]c2ccccc12)NC(=O)[C@H](CCC(N)=O)NC(=O)[C@@H](NC(=O)[C@H](Cc1ccccc1)NC(=O)[C@H](CC(=O)O)NC(=O)[C@H](CCC(N)=O)NC(=O)[C@H](C)NC(=O)[C@H](CCCNC(=N)N)NC(=O)[C@H](CCCNC(=N)N)NC(=O)[C@H](CO)NC(=O)[C@H](CC(=O)O)NC(=O)[C@H](CC(C)C)NC(=O)[C@H](Cc1ccc(O)cc1)NC(=O)[C@H](CCCCN)NC(=O)[C@H](CO)NC(=O)[C@H](Cc1ccc(O)cc1)NC(=O)[C@H](CC(=O)O)NC(=O)[C@H](CO)NC(=O)[C@@H](NC(=O)[C@H](Cc1ccccc1)NC(=O)[C@@H](NC(=O)CNC(=O)[C@H](CCC(N)=O)NC(=O)[C@H](CO)NC(=O)[C@@H](N)Cc1c[nH]cn1)[C@@H](C)O)[C@@H](C)O)C(C)C)C(C)C)C(N)=O` [g318], for which the EC50 was 1140 pM in assay [1] (Table 4, read-out: hGLP1R EC50) and 9040 pM in assay [2] (Table 4, read-out: hGlucR EC50).
In the case of `CC(C)C[C@H](NC(=O)[C@H](Cc1ccc(O)cc1)NC(=O)[C@H](CCCCN)NC(=O)[C@H](CO)NC(=O)[C@H](Cc1ccc(O)cc1)NC(=O)[C@H](CC(=O)O)NC(=O)[C@H](CO)NC(=O)[C@@H](NC(=O)[C@H](Cc1ccccc1)NC(=O)[C@@H](NC(=O)CNC(=O)[C@H](CCC(N)=O)NC(=O)[C@H](CO)NC(=O)[C@@H](N)Cc1c[nH]cn1)[C@@H](C)O)[C@@H](C)O)C(=O)N[C@@H](CC(=O)O)C(=O)N[C@@H](CO)C(=O)N[C@@H](CCCNC(=N)N)C(=O)N[C@@H](CCCNC(=N)N)C(=O)N[C@@H](C)C(=O)N[C@@H](CCC(N)=O)C(=O)N[C@@H](CC(=O)O)C(=O)N[C@@H](Cc1ccccc1)C(=O)N[C@H](C(=O)N[C@@H](CCC(N)=O)C(=O)N[C@@H](Cc1c[nH]c2ccccc12)C(=O)N[C@@H](CC(C)C)C(=O)N[C@H](C(=O)N[C@@H](CCCNC(=N)N)C(=O)NCC(=O)NCC(=O)NCC(=O)NCC(=O)NCC(=O)NCC(=O)N[C@@H](CCCCN)C(N)=O)C(C)C)C(C)C` [g325], in assay [2] (Table 4, read-out: hGlucR EC50), the EC50 was 10.3 pM.
For the compound `CC(C)C[C@H](NC(=O)[C@H](Cc1ccc(O)cc1)NC(=O)[C@H](CCCCN)NC(=O)[C@H](CO)NC(=O)[C@H](Cc1ccc(O)cc1)NC(=O)[C@H](CC(=O)O)NC(=O)[C@H](CO)NC(=O)[C@@H](NC(=O)[C@H](Cc1ccccc1)NC(=O)[C@@H](NC(=O)CNC(=O)[C@H](CCC(N)=O)NC(=O)[C@H](CO)NC(=O)[C@@H](N)Cc1c[nH]cn1)[C@@H](C)O)[C@@H](C)O)C(=O)N[C@@H](CC(=O)O)C(=O)N[C@@H](CO)C(=O)N[C@@H](CCCNC(=N)N)C(=O)N[C@@H](CCCNC(=N)N)C(=O)N[C@@H](C)C(=O)N[C@@H](CCC(N)=O)C(=O)N[C@@H](CC(=O)O)C(=O)N[C@@H](Cc1ccccc1)C(=O)N[C@H](C(=O)N[C@@H](CCC(N)=O)C(=O)N[C@@H](Cc1c[nH]c2ccccc12)C(=O)N[C@@H](CC(C)C)C(=O)N[C@H](C(=O)N[C@@H](CCCNC(=N)N)C(=O)NCC(=O)NCC(=O)N[C@@H](CO)C(=O)NCC(=O)N[C@@H](CO)C(=O)NCC(=O)N[C@@H](CO)C(=O)NCC(N)=O)C(C)C)C(C)C` [g402], the EC50 amounted to 85.7 pM in assay [1] (Table 4, read-out: hGLP1R EC50) and 59.6 pM in assay [2] (Table 4, read-out: hGlucR EC50).
For `CCCCCCCCCCCCCCCC(=O)NCCCCCC(=O)NCCCC[C@H](NC(=O)[C@H](CO)NC(=O)[C@H](CC(=O)O)NC(=O)[C@H](CC(C)C)NC(=O)[C@H](Cc1ccc(O)cc1)NC(=O)[C@H](CCC(=O)O)NC(=O)[C@H](CO)NC(=O)[C@H](Cc1ccc(O)cc1)NC(=O)[C@H](CC(=O)O)NC(=O)[C@H](CO)NC(=O)[C@@H](NC(=O)[C@H](Cc1ccccc1)NC(=O)[C@@H](NC(=O)CNC(=O)[C@H](CCC(N)=O)NC(=O)CNC(=O)[C@@H](N)Cc1c[nH]cn1)[C@@H](C)O)[C@@H](C)O)C(=O)N[C@@H](CCCNC(=N)N)C(=O)N[C@@H](C)C(=O)N[C@@H](CCCNC(=N)N)C(=O)N[C@@H](CC(=O)O)C(=O)N[C@@H](Cc1ccccc1)C(=O)N[C@H](C(=O)N[C@@H](CCC(=O)O)C(=O)N[C@@H](Cc1c[nH]c2ccccc12)C(=O)N[C@@H](CC(C)C)C(=O)N[C@@H](CCC(=O)O)C(=O)N[C@@H](CCCNC(=N)N)C(=O)NCC(=O)NCC(N)=O)C(C)C` [g682] the same measures were 14.3 pM and 195 pM.
For `CCCCCCCCCCCCCCCC(=O)N[C@@H](CCC(=O)NCCCC[C@H](NC(=O)[C@H](CO)NC(=O)[C@H](Cc1ccc(O)cc1)NC(=O)[C@H](CC(=O)O)NC(=O)[C@H](CO)NC(=O)[C@@H](NC(=O)[C@H](Cc1ccccc1)NC(=O)[C@@H](NC(=O)CNC(=O)[C@H](CCC(N)=O)NC(=O)CNC(=O)[C@@H](N)Cc1c[nH]cn1)[C@@H](C)O)[C@@H](C)O)C(=O)N[C@@H](Cc1ccc(O)cc1)C(=O)N[C@@H](CC(C)C)C(=O)N[C@@H](CC(=O)O)C(=O)N[C@@H](CO)C(=O)N[C@@H](CCC(=O)O)C(=O)N[C@@H](CCCNC(=N)N)C(=O)N[C@@H](C)C(=O)N[C@@H](CCC(N)=O)C(=O)N[C@@H](CC(=O)O)C(=O)N[C@@H](Cc1ccccc1)C(=O)N[C@H](C(=O)N[C@@H](CCC(N)=O)C(=O)N[C@@H](Cc1c[nH]c2ccccc12)C(=O)N[C@@H](CC(C)C)C(=O)N[C@@H](CCC(=O)O)C(=O)N[C@@H](CCCNC(=N)N)C(=O)NCC(=O)NCC(N)=O)C(C)C)C(=O)O` [g701] (H-HGQGTFTSDYSK([γGlu-Palmitoyl])YLDSERAQDFVQWLERGG-NH2; N-terminus assumed) the same measures were 7400 pM and 3830 pM.
For `CCCCCCCCCCCCCCCC(=O)N[C@@H](CCC(=O)NCCCC[C@H](NC(=O)[C@H](CO)NC(=O)[C@H](Cc1ccc(O)cc1)NC(=O)[C@H](CC(=O)O)NC(=O)[C@H](CO)NC(=O)[C@@H](NC(=O)[C@H](Cc1ccccc1)NC(=O)[C@@H](NC(=O)CNC(=O)[C@H](CCC(N)=O)NC(=O)[C@H](CO)NC(=O)[C@@H](N)Cc1c[nH]cn1)[C@@H](C)O)[C@@H](C)O)C(=O)N[C@@H](Cc1ccc(O)cc1)C(=O)N[C@@H](CC(C)C)C(=O)N[C@@H](CC(=O)O)C(=O)N[C@@H](CO)C(=O)N[C@@H](CCC(=O)O)C(=O)N[C@@H](CCCNC(=N)N)C(=O)N[C@@H](C)C(=O)N[C@@H](CCC(N)=O)C(=O)N[C@@H](CC(=O)O)C(=O)N[C@@H](Cc1ccccc1)C(=O)N[C@H](C(=O)N[C@@H](CCC(N)=O)C(=O)N[C@@H](Cc1c[nH]c2ccccc12)C(=O)N[C@@H](CC(C)C)C(=O)N[C@H](C(=O)N[C@@H](C)C(=O)NCC(=O)NCC(N)=O)C(C)C)C(C)C)C(=O)O` [g702] (H-HSQGTFTSDYSK([γGlu-Palmitoyl])YLDSERAQDFVQWLVAGG-NH2; N-terminus assumed), in that order: 3350 pM and 1490 pM.
`CCCCCCCCCCCCCCCC(=O)N[C@@H](CCC(=O)NCCCC[C@H](NC(=O)[C@H](CO)NC(=O)[C@H](CC(=O)O)NC(=O)[C@H](CC(C)C)NC(=O)[C@H](Cc1ccc(O)cc1)NC(=O)[C@H](CCCNC(=N)N)NC(=O)[C@H](CO)NC(=O)[C@H](Cc1ccc(O)cc1)NC(=O)[C@H](CC(=O)O)NC(=O)[C@H](CO)NC(=O)[C@@H](NC(=O)[C@H](Cc1ccccc1)NC(=O)[C@@H](NC(=O)CNC(=O)[C@H](CCC(N)=O)NC(=O)CNC(=O)[C@@H](N)Cc1c[nH]cn1)[C@@H](C)O)[C@@H](C)O)C(=O)N[C@@H](CCCNC(=N)N)C(=O)N[C@@H](C)C(=O)N[C@@H](CCCNC(=N)N)C(=O)N[C@@H](CC(=O)O)C(=O)N[C@@H](Cc1ccccc1)C(=O)N[C@H](C(=O)N[C@@H](CCC(=O)O)C(=O)N[C@@H](Cc1c[nH]c2ccccc12)C(=O)N[C@@H](CC(C)C)C(=O)N[C@H](C(=O)N[C@@H](C)C(=O)NCC(=O)NCC(N)=O)C(C)C)C(C)C)C(=O)O` [g720] (H-HGQGTFTSDYSRYLDSK([γGlu-Palmitoyl])RARDFVEWLVAGG-NH2; N-terminus assumed): the EC50 came to 53.4 pM in assay [1] (Table 4, read-out: hGLP1R EC50) and 352 pM in assay [2] (Table 4, read-out: hGlucR EC50).
